Laboratory results as given in patent US9169246B2, “Pyrazoloquinolinone derivatives, preparation thereof and therapeutic use thereof” (SANOFI, priority 2011, dated 2015).

Test system: HUVEC cells
Assay: Test of in vitro proliferation of HUVEC cells induced with FGF-2
Type: cell-based
Conditions: Homo sapiens, FGF-2 1 ng/ml induced proliferation, ATP luminescence, head says M, cells print nM
Description: The compounds according to the invention underwent biochemical studies in order to determine their capacity to inhibit the enzyme methionine-aminopeptidase2 (enzymatic test on isolated enzyme). […] Consequently, the compounds of the invention that show good activity in the MetAP2 enzymatic test were evaluated in a test of in vitro proliferation of HUVEC cells induced with FGF-2. […] After incubation for 48 hours, the medium is aspirated and replaced with the deprivation medium RPMI1640 mentioned previously. A second stimulation is then performed. The cells are again incubated at 37° C. in the presence of CO2. After incubation for 72 hours, the medium is again aspirated and 100 μl of Cell Titer-GLOTM Luminescent Cell Viability Assay (Promega, G7571) are added over 10 minutes. The amount of ATP present in the cells, measured using a luminometer, is proportional to the number cells per well corresponding to the cell proliferation.

Row | SMILES | IC50 [nM]
1 | Cc1cc(-c2ccc3c4[nH]ncc4c(=O)n(CC(F)(F)F)c3c2)ccn1 [Compound 186, 7-(2-methylpyrid-4-yl)-5-(2,2,2-trifluoroethyl)-1,5-dihydro-4H-pyrazolo[4,3-c]quinolin-4-one] | 360
2 | O=c1c2cn[nH]c2c2ccc(-c3ccccc3F)cc2n1CC(F)(F)F [Compound 3, 7-(2-fluorophenyl)-5-(2,2,2-trifluoroethyl)-1,5-dihydro-4H-pyrazolo[4,3-c]quinolin-4-one] | 660
